The values that follow come from patent US20050170020A1, “Using organic and / or inorganic potassium and its salts to treat autoimmune and other health disorders and methods of administering the same” (priority 2003, published 2005).

The subject of this test is psoriasis affected scalp area. Description: Phenylephrine applied on psoriasis affected scalp area. Format: in vivo, human. The settings on record: topical, inventor. An excerpt:
From above it is clear that by reducing the body water loss i.e. by vasoconstriction we can control the psoriasis. To check this theory inventor has applied Phenylephrine which is used for nasal decongestant, on psoriasis affected scalp area. Phenylephrine is an Adrenergic Agent that mimics the sympathetic neurotransmitter norepinephrine (NE). […] This worked by way of reducing water loss of psoriatic skin by vasoconstriction.

With `CNC[C@H](O)c1cccc(O)c1` [Phenylephrine], the “Response of psoriatic skin” value was “lesions reduced”.
